Test results from patent EP0387830A2, “The anthracycline substances, microorganisms producing the same and a process for preparing the substances” (YAMANOUCHI PHARMACEUTICAL CO. LTD., priority 1989, dated 1990).
In brackets after ≈: the same amount, converted by molar mass.

Tests used:
P 388 = assay: Cytotoxicity on tumor cells in vitro (trypan blue exclusion, cell growth inhibition); format: cell-based; details: tartrates dissolved in saline, 1 x 10⁵ cells/mℓ, 37 °C for 3 days, RPMI-1640 + 5 % fetus calf serum + 5 µM 2-hydroxyethyldisulfide; for IC50: Mus musculus, P388, 72 h, read-out: IC₅₀ P388
Protocol: (§1) To each 1 mℓ of L 1210* and P 388** culture medium in a concentration of 1 x 10⁵ cells/mℓ, 4 µℓ of each solution of the tartrates of the anthracycline compounds according to the present invention which was dissolved in saline in different concentrations was added respectively and incubated at 37 °C for 3 days in a CO₂ incubator. Then, numbers of surviving cells were counted by trypan blue exclusion. The cytotoxic activity was determined by calculating the cell growth inhibitory ratio of the numbers of surviving cells to numbers of cells of a control to which no compound was added in the different concentrations and by plotting them on a graph. Note : Medium used: * : RPMI-1640 + 10 % new born calf serum **: RPMI-1640 + 5 % fetus calf serum + 5 µM 2-hydroxyethyldisulfide

[1] = system: P388 adriamycin resistant cell; assay: as above; format: cell-based; details: Mus musculus, P388, 72 h, tartrates dissolved in saline; 37 °C for 3 days; read-out: IC₅₀ P388 adriamycin resistant cell
Protocol: as §1

[2] = Solubility in solvents (physicochemical properties)
L 1210 = assay: Cytotoxicity on tumor cells in vitro (trypan blue exclusion, cell growth inhibition); format: cell-based; details: tartrates dissolved in saline, 1 x 10⁵ cells/mℓ, 37 °C for 3 days, RPMI-1640 + 10 % new born calf serum
Protocol: as §1

P-388 tumor cells = assay: Antitumor activity to P388 on animal (prolongation of life); details: for Median survival days: BDFI/SLC male mice, control 13.0; for T/C: ratio of median survival days to control; for Survival rate (after 22 days): survivors - animals in group

| Compound | IC50 (P 388) [µg/mL] | IC50 [1] [µg/mL] | Solubility in solvents ([2]; in hexane) | Solubility in solvents ([2]; in methanol, ethanol, acetone, ethylacetate, benzene, toluene and chloroform) | Solubility in solvents ([2]; in water) | IC₅₀ P388 (P 388) [µg/mL] | IC50 (L 1210; Mus musculus, L1210, 72 h, read-out: IC₅₀ L1210) [µg/mL] | IC₅₀ L1210 (L 1210) [µg/mL] | Median survival days (P-388 tumor cells; 0.50 × 5 mg/kg) [days] | T/C (P-388 tumor cells; 0.50 × 5 mg/kg) [%] | Survival rate (after 22 days) (P-388 tumor cells; 0.50 × 5 mg/kg) | Median survival days (P-388 tumor cells; 1.0 × 5 mg/kg) [days] | T/C (P-388 tumor cells; 1.0 × 5 mg/kg) [%] | Survival rate (after 22 days) (P-388 tumor cells; 1.0 × 5 mg/kg) |
| --- | --- | --- | --- | --- | --- | --- | --- | --- | --- | --- | --- | --- | --- | --- |
| COc1cccc2c1C(=O)c1c(cc3c(c1O)C(OC1OC(C)C(OC)C(O)C1OC)CC(C)(OC(C)=O)C3OC1OC(C)C(N(C)C)C(C)(O)C1O)C2=O (stereo not drawn) [YL-01641P-C₁] | 0.18 | 0.33 (≈ 0.426 µM) | insoluble | soluble | difficult to be dissolved |  |  |  |  |  |  |  |  |  |
| COc1cccc2c1C(=O)c1c(O)c3c(c(O)c1C2=O)C[C@@](O)(C(=O)CO)C[C@@H]3O[C@H]1C[C@H](N)[C@H](O)[C@H](C)O1 [adriamycin] | 0.03 |  |  |  |  | 0.023 | 0.087 | 0.090 |  |  |  |  |  |  |
| CO[C@@]12[C@H](COC(N)=O)C3=C(C(=O)C(C)=C(N)C3=O)N1C[C@@H]1N[C@@H]12 [mitomycin C] |  |  |  |  |  |  |  |  | 22.0 | 169 | 2 - 8 | > 22.0 | > 169 | 8 - 8 |
